This note sets out measurements from patent US10815210B2, “Benzocyclobutane derivatives useful as dual SGLT1 / SGLT2 modulators” (Janssen Pharmaceutica NV, priority 2016, dated 2020).

For test [1], the target named is T1, human SGLT1 (Homo sapiens, UniProt P13866).
T1 construct: expressed in transfected cells; host or cells: CHO-K1
T1 sequence (P13866 1-664): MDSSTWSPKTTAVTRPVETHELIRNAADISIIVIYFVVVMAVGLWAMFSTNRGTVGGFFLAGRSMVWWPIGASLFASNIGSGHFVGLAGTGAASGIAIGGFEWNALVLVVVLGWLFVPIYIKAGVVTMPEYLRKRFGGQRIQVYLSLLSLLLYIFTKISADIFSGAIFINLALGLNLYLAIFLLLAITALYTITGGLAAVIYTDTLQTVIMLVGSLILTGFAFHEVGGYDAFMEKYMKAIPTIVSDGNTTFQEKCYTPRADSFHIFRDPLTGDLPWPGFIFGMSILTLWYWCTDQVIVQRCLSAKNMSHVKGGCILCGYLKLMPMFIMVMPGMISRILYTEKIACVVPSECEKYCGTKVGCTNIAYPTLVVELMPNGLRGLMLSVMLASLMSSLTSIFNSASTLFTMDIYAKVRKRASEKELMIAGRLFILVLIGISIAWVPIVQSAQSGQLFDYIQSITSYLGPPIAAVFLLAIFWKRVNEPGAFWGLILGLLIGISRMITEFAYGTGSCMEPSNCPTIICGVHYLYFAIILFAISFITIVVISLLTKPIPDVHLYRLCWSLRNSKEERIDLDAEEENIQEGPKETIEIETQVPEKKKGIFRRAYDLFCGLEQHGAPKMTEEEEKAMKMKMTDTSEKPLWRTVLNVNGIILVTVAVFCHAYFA
Nature of the test: SGLT1 assay: Na-dependent 14C-AMG uptake in CHO-K1 cells stably expressing human SGLT1. In kind it is cell-based. Conditions: for IC50: 500 μM AMG, 2 hours at 37° C. Put shortly:
(§1)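 CHO-K1 cells stably expressing human SGLT1 or SGLT2, pretreated 24 h with 10 mM Na-butyrate, were exposed 10 min to compound (0.001-10 μM) in Na-containing HEPES/Tris buffer pH 7.4. Uptake of ^14C-AMG (500 μM final) ran 2 h at 37° C, then Na-dependent uptake was counted by scintillation.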

Test [2] addresses T2, human SGLT2 (Homo sapiens, UniProt P31639).
T2 construct: expressed in transfected cells; host or cells: CHO-K1
T2 sequence (P31639 1-672): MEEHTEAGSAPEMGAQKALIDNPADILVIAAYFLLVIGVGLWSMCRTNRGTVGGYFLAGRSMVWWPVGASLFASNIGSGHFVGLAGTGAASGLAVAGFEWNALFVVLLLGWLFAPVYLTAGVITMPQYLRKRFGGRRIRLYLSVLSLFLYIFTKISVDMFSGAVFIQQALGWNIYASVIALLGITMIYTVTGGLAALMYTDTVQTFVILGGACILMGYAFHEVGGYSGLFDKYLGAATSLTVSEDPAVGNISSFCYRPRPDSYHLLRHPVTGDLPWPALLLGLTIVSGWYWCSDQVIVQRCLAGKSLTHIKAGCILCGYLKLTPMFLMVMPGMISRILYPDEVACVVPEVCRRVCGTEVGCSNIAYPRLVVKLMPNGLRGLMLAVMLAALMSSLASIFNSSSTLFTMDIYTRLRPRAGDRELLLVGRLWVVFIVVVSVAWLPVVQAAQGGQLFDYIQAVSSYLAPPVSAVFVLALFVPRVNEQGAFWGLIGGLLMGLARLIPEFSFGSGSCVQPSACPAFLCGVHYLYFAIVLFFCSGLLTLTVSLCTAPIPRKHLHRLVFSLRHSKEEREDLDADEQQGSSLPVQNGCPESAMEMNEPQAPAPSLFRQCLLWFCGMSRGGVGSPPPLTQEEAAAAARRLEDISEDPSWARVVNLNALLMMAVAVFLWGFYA
Description: SGLT2 assay: Na-dependent 14C-AMG uptake in CHO-K1 cells stably expressing human SGLT2. In kind it is cell-based. Conditions: for IC50: 500 μM AMG, 2 hours at 37° C. In outline: as §1

Turning to `COc1cc(O)c([C@@H]2O[C@H](CO)C(F)(F)[C@H](O)[C@H]2O)cc1Cc1ccc2c(c1)CC2` [Compound 107], the IC50 in test [1] worked out at 10 nM; in test [2], 1 nM.
Turning to `COc1cc(F)c([C@@H]2O[C@H](CO)[C@@H](O)[C@H](O)[C@H]2O)cc1Cc1ccc2c(c1)CC2` [Compound 31, (2S,3R,4R,5S,6R)-2-(5-((1,2-dihydrocyclobutabenzen-4-yl)methyl)-2-fluoro-4-methoxyphenyl)-6-(hydroxymethyl)-tetrahydro-2H-pyran-3,4,5-triol], the concentration for half-maximal inhibition (IC50) in test [1] was 84 nM; in test [2], 10 nM.
Regarding `CCc1cc(OCF)c([C@@H]2O[C@H](CO)[C@@H](O)[C@H](O)[C@H]2O)cc1Cc1ccc2c(c1)CC2` [Compound 42, (2S,3R,4R,5S,6R)-2-(5-((1,2-dihydrocyclobutabenzen-4-yl)methyl)-4-ethyl-2-(fluoromethoxy)phenyl)-6-(hydroxymethyl)-tetrahydro-2H-pyran-3,4,5-triol], the half-maximal inhibitory concentration (IC50) in test [1] was found to be 34 nM; in test [2], 2 nM.
`CCc1cc(OC2CC2)c([C@@H]2O[C@H](CO)[C@@H](O)[C@H](O)[C@H]2O)cc1Cc1ccc2c(c1)CC2` [Compound 116]: the results for the half-inhibitory concentration (IC50) in test [1] and in test [2] were 13 nM and 2 nM, respectively.
As to `OC[C@H]1O[C@@H](c2cc(Cc3ccc4c(c3)CC4)c(F)cc2O)[C@H](O)[C@@H](O)[C@@H]1O` [Compound 19, (2S,3R,4R,5S,6R)-2-(5-(bicyclo[4.2.0]octa-1(6),2,4-trien-3-ylmethyl)-4-fluoro-2-hydroxyphenyl)-6-(hydroxymethyl)tetrahydro-2H-pyran-3,4,5-triol], the inhibition at 0.3 µM in test [1] came to 62%. In test [2], this molecule came in with an inhibition at 0.03 µM of 38%.
In the case of `[2H]C1([2H])c2ccc(Cc3cc([C@@H]4O[C@H](CO)[C@@H](O)[C@H](O)[C@H]4O)ccc3Cl)cc2C1([2H])[2H]` [Compound 123], the IC50 in test [1] amounted to 80 nM; in test [2], 1 nM.
For `[2H]c1c(C)c(Cc2ccc3c(c2)CC3)cc([C@@H]2O[C@H](CO)[C@@H](O)[C@H](O)[C@H]2O)c1O` (single isomer, unassigned) [Compound 121] the same measures were 11 nM and 2 nM.
`[2H]C1([2H])Cc2cc(Cc3cc([C@@H]4O[C@H](CO)[C@@H](O)[C@H](O)[C@H]4O)c(OC)cc3C)ccc21` [Compound 86, (2S,3R,4R,5S,6R)-2-(5-((1,1-dideuterium-1,2-dihydrocyclobutabenzen-4-yl)methyl)-2-methoxy-4-methylphenyl)-6-(hydroxymethyl)-tetrahydro-2H-pyran-3,4,5-triol]: the 50% inhibitory concentration (IC50) in test [1] turned out to be 68 nM; in test [2], 2 nM.
For the molecule `COc1cc(O)c([C@@H]2O[C@H](CO)[C@@H](O)[C@H](O)[C@H]2O)cc1Cc1ccc2c(c1)CC2` [Compound 10, (2S,3R,4R,5S,6R)-2-(5-((1,2-dihydrocyclobutabenzen-4-yl)methyl)-2-hydroxy-4-methoxyphenyl)-6-(hydroxymethyl)-tetrahydro-2H-pyran-3,4,5-triol], the IC50 in test [1] was found to be 5 nM; in test [2], 1 nM.
Molecule `COc1cc(OC(F)(F)F)c([C@@H]2O[C@H](CO)[C@@H](O)[C@H](O)[C@H]2O)cc1Cc1ccc2c(c1)CC2` [Compound 34, (2S,3R,4R,5S,6R)-2-(5-((1,2-dihydrocyclobutabenzen-4-yl)methyl)-4-methoxy-2-(trifluoromethoxy)phenyl)-6-(hydroxymethyl)-tetrahydro-2H-pyran-3,4,5-triol] had an inhibition at 0.3 µM in test [1] of 24%. In test [2], this molecule registered an inhibition at 0.03 µM of 72%.
Regarding `CCc1cc(OC(F)(F)F)c([C@@H]2O[C@H](CO)[C@@H](O)[C@H](O)[C@H]2O)cc1Cc1ccc2c(c1)CC2` [Compound 35, (2S,3R,4R,5S,6R)-2-(5-((1,2-dihydrocyclobutabenzen-4-yl)methyl)-4-ethyl-2-(trifluoromethoxy)phenyl)-6-(hydroxymethyl)-tetrahydro-2H-pyran-3,4,5-triol], the inhibition at 0.3 µM in test [1] is 29%. Also, in test [2], the inhibition at 0.03 µM was found to be 45%.
As to `OC[C@H]1O[C@@H](c2cc(Cc3ccc4c(c3)CC4)c(Cl)cc2OCF)[C@H](O)[C@@H](O)[C@@H]1O` [Compound 40, (2S,3R,4R,5S,6R)-2-(4-chloro-5-((1,2-dihydrocyclobutabenzen-4-yl)methyl)-2-(fluoromethoxy)phenyl)-6-(hydroxymethyl)-tetrahydro-2H-pyran-3,4,5-triol], the half-inhibitory concentration (IC50) in test [1] is 149 nM; in test [2], 1 nM.
In the case of `Cc1cc(Cc2ccc3c(c2)CC3)cc([C@@H]2O[C@H](CO)[C@@H](O)[C@H](O)[C@H]2O)c1O` [Compound 27, (2S,3R,4R,5S,6R)-2-(5-((1,2-dihydrocyclobutabenzen-4-yl)methyl)-2-hydroxy-3-methylphenyl)-6-(hydroxymethyl)-tetrahydro-2H-pyran-3,4,5-triol], the figures for the IC50 in test [1] and in test [2] were 29 nM and 1 nM, respectively.
Turning to `[2H]C1([2H])Cc2cc(Cc3cc([C@@H]4O[C@H](CO)[C@@H](O)[C@H](O)[C@H]4O)c(OC)cc3Cl)ccc21` [Compound 83, (2S,3R,4R,5S,6R)-2-(5-{[(7,7-dideuterium)bicyclo[4.2.0]octa-1(6),2,4-trien-3-yl]methyl}-4-chloro-2-methoxyphenyl)-6-(hydroxymethyl)oxane-3,4,5-triol], the IC50 in test [1] turned out to be 64 nM; in test [2], 1 nM.
As for `Cc1ccc([C@@H]2O[C@H](CO)[C@@H](F)[C@H](O)[C@H]2O)cc1C(F)(F)c1ccc2c(c1)CC2` [Compound 142], the IC50 amounted to 133 nM in test [1] and 23 nM in test [2].
For `CCOc1cc(C)c(Cc2ccc3c(c2)CC3)cc1[C@@H]1O[C@H](CO)[C@@H](F)[C@H](O)[C@H]1O` [Compound 131] the same measures were 49 nM and 1 nM.
For `CCOc1cc(Cl)c(Cc2ccc3c(c2)CC3)cc1[C@@H]1O[C@H](CO)[C@@H](F)[C@H](O)[C@H]1O` [Compound 132], in that order: 18 nM and 1 nM.
For `Cc1cc(O)c([C@@H]2O[C@H](CO)[C@@H](O)[C@H](O)[C@H]2O)cc1Cc1ccc2c(c1)CC2` [Compound 6, (2S,3R,4R,5S,6R)-2-(5-((1,2-dihydrocyclobutabenzen-4-yl)methyl)-2-hydroxy-4-methylphenyl)-6-(hydroxymethyl)-tetrahydro-2H-pyran-3,4,5-triol], in that order: 4 nM and 1 nM.
Turning to `COc1cc(C)c(Cc2ccc3c(c2)CC3)cc1[C@@H]1O[C@H](CO)[C@@H](O)[C@H](O)[C@H]1O` [Compound 7, (2S,3R,4R,5S,6R)-2-(5-((1,2-dihydrocyclobutabenzen-4-yl)methyl)-2-methoxy-4-methylphenyl)-6-(hydroxymethyl)-tetrahydro-2H-pyran-3,4,5-triol], the IC50 in test [1] is 48 nM; in test [2], 1 nM.
As to `Cc1ccc([C@@H]2O[C@H](CO)[C@@H](O)[C@H](O)[C@H]2O)cc1C(F)(F)c1ccc2c(c1)CC2` [Compound 141], the IC50 in test [1] was determined as 33 nM; in test [2], 2 nM.
For `Cc1c(Cc2ccc3c(c2)CC3)cc([C@@H]2O[C@H](CO)[C@@H](O)[C@H](O)[C@H]2O)c(O)c1I` [Compound 120], in that order: 14 nM and 7 nM.
Turning to `COc1cc(Cl)c(Cc2ccc3c(c2)CC3)cc1[C@@H]1O[C@H](CO)C(F)(F)[C@H](O)[C@H]1O` [Compound 103], the values for the IC50 in test [1] and in test [2] were 13 nM and 2 nM, respectively.
On to `[2H]C1([2H])Cc2ccc(Cc3cc([C@@H]4O[C@H](CO)[C@@H](O)[C@H](O)[C@H]4O)ccc3OC)cc21` (single isomer, unassigned) [Compound 64], for which the IC50 in test [1] came to 93 nM; in test [2] it was 4 nM.
